{"source": "patent US20180311340A1", "about": "“NEW ADJUVANT AND VACCINE COMPOSITION CONTAINING THE SAME” (priority 2015, published 2018)", "key": {"[1]": {"test_system": "Influenza A/Singapore/6/86(H1N1)", "assay": "Immunogenicity study of influenza virosome with flavonoids; humoral response by ELISA", "type": "in vivo", "details": "Balb/c mice, subcutaneous, 1 μg Influenza A virosome with 1 or 10 μg adjuvant, day 0 and 21, blood after 35 days; compared to other analysed flavonoids and virosomes without adjuvant"}, "[2]": {"test_system": "PCSK9 antigenic peptide", "assay": "Immunogenicity study of PCSK9 vaccine; humoral response by ELISA", "type": "in vivo, mice", "details": "beta-sitosterol used along with alum; statement on Table 6", "experimental": "The results are measured in ELISA units.\nPCSK9 vaccine was prepared as described in WIPO publication WO 2011/027257. Here, ‘VR_9.5’ as decribed in WO 2011/027257 has been used as PCSK9 peptide for the current experiment. Other disclosed PCSK9 peptide can also be used as PCSK9 construct. The prepared PCSK9 construct was conjugated with diphtheria toxoid as an immunogenic carrier. The said preparation was used as an antigen preparation for further study. The conjugated PCSK9 antigen was formulated with alum and beta-sitosterol. […] Blood samples were collected at day 63 for the analysis of humoral response by ELISA. Humoral response analysed by ELISA is shown in below table. […] Table 6 provided here below for the results obtained by ELISA."}}, "note": "“Also recorded” adds a separate entry of the source."}
{"smiles": "CC[C@H](CC[C@@H](C)[C@H]1CC[C@H]2[C@@H]3CC=C4C[C@@H](O)CC[C@]4(C)[C@H]3CC[C@]12C)C(C)C", "note": "[beta-sitosterol]", "values": [{"measurement": "immune response (serum titers of total IgG, IgG2a and IgG1 antibody, FIG. 1-3)", "setting": "[1]", "value": "higher immune response"}, {"measurement": "immune response against PCSK9 antigenic peptide", "setting": "[2]", "value": "higher immune response; also recorded: synergistic effect"}]}
